Structures can show the parent of a compound that is named as a salt.
Tests used:
Vero cytotoxicity test = format: cell-based; conditions: African green monkey; Vero cells; mean ± standard deviation of three groups of parallel tests
Procedure: A cytotoxicity test of CVB1, CVB2 and CVB3 on Vero cells was carried out with three groups of parallel tests, respectively, and Table 1 was obtained.

CVB1 [1] = experiment: Time process test (administration time after infection); format: cell-based, Coxsackievirus B1 (CVB1); conditions: different administration times, FIG. 5
CVB2 = conditions: Coxsackievirus B type 2; CPE in vitro
[2] = system: enterovirus type 71 (BrCr/C4 subtype); experiment: Antiviral activity against enterovirus type 71 (CPE in vitro); format: cell-based
Procedure: (§1) Test 3: In vitro anti-CVB1, anti-CVB2, anti-CVB3, anti-CVA16, anti-EV71 BrCr and anti-EV71-C2 virus models of Vero cells (cell quantity: 1.5×10^4 cells per well) were established, respectively. […] An inhibition rate and a standard deviation were measured by an AlamarBlue test in three parallel tests.

CVB1 [3] = conditions: Coxsackievirus B type 1; CPE in vitro
Procedure: 72 hours later, the degree of a cytopathic effect was detected by an AlamarBlue fluorescent reagent, and an inhibition rate was calculated by using a formula.

[4] = system: Coxsackievirus A (6/10/16 subtype); experiment: Antiviral activity against Coxsackievirus A (CPE in vitro); format: cell-based
Procedure: as §1

CVB1 [5] = experiment: Progeny virus yield of CVB1 in Vero cells (supernatant titrated by plaque reduction test); format: cell-based, Coxsackievirus B1 (CVB1); conditions: 0.02 MOI CVB1, Vero cells, 72 hours, FIG. 4c
Procedure: After culture for 72 hours, a supernatant was titrated by a plaque reduction test, and results were obtained from three groups of parallel tests.

CVB3 = conditions: Coxsackievirus B type 3; CPE in vitro
Coxsackievirus B = experiment: Inhibition rate at 25 μM in virus-infected Vero cells (AlamarBlue); format: cell-based; conditions: 72 hours, FIG. 3
Procedure: as §1

CN(C)CCC=C1c2ccccc2COc2ccccc21 [doxepin hydrochloride]
CC50 (Vero cytotoxicity test): 90.7 ± 16.4 µM | stage of infection cycle inhibited (in words) (CVB1 [1]): inhibits virus replication at an early stage of an infection cycle | antiviral activity (in words) (CVB2): strong antiviral activity | antiviral activity (in words) [2]: does not have any antiviral activity | antiviral activity (in words) (CVB1 [3]): strong antiviral activity | antiviral activity (in words) [4]: does not have any antiviral activity | progeny yield of CVB1 (in words) (CVB1 [5]): inhibited the progeny yield of CVB1 | antiviral activity (in words) (CVB3): strong antiviral activity | activity spectrum from inhibition rate (in words) (Coxsackievirus B): broad-spectrum activity against Coxsackievirus B
